Experimental data published in ChEMBL document CHEMBL1201862, “PubChem BioAssay data set” (2004).
Activity calls are given as the source filed them.

Tests used:
[1] = target: T1, Sentrin-specific protease 6 (Homo sapiens, UniProt Q9GZR1); assay type: functional;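 note: Luminescence-based dose-response confirmatory assay of SENP6 inhibition, following up an ultra-high-throughput screen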
T1 sequence (Q9GZR1 whole entry): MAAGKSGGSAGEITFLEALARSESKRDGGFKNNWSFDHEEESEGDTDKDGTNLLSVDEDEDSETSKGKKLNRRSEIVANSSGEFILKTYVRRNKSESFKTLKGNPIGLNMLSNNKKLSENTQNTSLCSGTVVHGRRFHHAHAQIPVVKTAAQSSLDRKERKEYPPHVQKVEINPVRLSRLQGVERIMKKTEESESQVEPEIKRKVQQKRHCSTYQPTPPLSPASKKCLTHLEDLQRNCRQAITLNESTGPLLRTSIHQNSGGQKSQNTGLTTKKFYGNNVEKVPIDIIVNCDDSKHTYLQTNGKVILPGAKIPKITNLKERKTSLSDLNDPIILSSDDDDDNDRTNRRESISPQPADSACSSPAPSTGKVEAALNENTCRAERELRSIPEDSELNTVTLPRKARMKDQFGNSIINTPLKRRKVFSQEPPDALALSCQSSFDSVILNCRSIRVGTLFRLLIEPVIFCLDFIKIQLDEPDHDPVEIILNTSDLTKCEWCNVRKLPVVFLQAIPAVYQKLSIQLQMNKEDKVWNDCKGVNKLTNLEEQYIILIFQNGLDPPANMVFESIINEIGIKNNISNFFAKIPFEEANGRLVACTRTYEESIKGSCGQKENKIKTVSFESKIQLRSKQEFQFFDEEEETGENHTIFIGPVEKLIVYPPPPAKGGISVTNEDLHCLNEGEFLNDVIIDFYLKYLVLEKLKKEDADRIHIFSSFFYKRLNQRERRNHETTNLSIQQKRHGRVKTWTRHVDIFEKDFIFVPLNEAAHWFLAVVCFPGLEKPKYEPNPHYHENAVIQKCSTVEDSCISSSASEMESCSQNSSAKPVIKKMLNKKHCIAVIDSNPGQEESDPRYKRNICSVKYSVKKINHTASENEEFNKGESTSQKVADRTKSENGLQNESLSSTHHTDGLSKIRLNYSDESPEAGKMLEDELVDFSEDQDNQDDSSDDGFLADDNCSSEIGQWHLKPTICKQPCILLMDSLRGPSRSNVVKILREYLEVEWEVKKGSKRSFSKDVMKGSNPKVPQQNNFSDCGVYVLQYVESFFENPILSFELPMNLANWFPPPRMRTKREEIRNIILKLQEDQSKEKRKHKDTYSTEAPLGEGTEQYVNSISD

[2] = target: T2, Sentrin-specific protease 8 (Homo sapiens, UniProt Q96LD8); assay type: functional
T2 sequence (Q96LD8 whole entry): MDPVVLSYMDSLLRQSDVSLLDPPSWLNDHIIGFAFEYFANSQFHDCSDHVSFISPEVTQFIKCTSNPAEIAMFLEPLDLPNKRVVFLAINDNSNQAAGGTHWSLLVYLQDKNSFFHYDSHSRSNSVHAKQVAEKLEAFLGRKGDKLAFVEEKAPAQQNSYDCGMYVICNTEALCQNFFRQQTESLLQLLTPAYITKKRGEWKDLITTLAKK

CC(C)=CCC1=C(OCC(=O)O)C(=O)c2ccccc2C1=O
IC50 [1]: 2.53 µM (active)

Cc1[nH][nH]c(=O)c1C(c1c(C)[nH][nH]c1=O)c1cn(Cc2ccccc2Cl)c2ccccc12
IC50 [2]: 4.8 µM (active)
